pEC50: −log10 of the molar value.

CXCR7, sequence (P25106 whole entry): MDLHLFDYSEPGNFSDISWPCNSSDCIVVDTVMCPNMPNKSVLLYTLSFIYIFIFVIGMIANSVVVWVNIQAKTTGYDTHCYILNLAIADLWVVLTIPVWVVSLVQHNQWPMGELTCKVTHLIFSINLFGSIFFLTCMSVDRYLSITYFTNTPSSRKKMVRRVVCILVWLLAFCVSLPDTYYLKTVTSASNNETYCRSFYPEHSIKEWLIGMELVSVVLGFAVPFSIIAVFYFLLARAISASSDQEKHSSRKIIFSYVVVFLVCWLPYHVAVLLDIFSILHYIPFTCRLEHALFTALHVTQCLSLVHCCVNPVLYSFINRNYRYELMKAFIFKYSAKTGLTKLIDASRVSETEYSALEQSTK
CXCR7, sequence (P32121 whole entry partner): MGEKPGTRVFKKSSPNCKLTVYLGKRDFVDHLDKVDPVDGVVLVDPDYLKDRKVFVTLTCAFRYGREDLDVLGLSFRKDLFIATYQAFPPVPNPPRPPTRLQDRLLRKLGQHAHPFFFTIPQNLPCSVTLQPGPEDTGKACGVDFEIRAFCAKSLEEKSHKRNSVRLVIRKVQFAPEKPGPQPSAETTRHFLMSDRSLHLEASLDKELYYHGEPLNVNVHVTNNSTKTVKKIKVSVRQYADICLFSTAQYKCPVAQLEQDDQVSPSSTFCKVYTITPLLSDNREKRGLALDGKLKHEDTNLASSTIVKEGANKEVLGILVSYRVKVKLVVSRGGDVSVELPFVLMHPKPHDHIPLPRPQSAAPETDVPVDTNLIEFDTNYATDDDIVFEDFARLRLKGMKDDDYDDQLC

In this assay the target is CXCR7 (Homo sapiens (Human), UniProt P25106). Kind of assay: PathHunter CHO-K1 CXCR7 b-arrestin assay (agonistic activity). The format is cell-based. To be noted: PathHunter CHO-K1 CXCR7 b-arrestin cell line. Here is the method:
The CXCl12 receptor and CXCR7 agonistic activities of the compounds of formula (I) are determined in accordance with the following experimental method.
The assay is using the PathHunter™ CHO-K1 CXCR7 b-arrestin cell line from DiscoverX. The system is based on the Enzyme Fragment Complementation Technology. Two complementing fragments of the b-galactosidase enzyme are expressed within stably transfected cells. The larger portion of b-gal, termed EA for Enzyme Acceptor, is fused to the C-terminus of b-arrestin 2. The smaller fragment, termed ProLink™ tag, is fused to CXCR7 at the C-terminus. Upon activation, b-arrestin is recruited which forces the interaction of ProLink and EA, allowing complementation of the two fragments of b-gal and the formation of a functional enzyme which is capable of hydrolysing the substrate and generating a chemiluminescent signal.
CHO-K1 CXCR7 b-arrestin cells are detached from culture dishes with a cell dissociation buffer (Invitrogen, #13151-014) and collected in growing medium (F12 HAMS 90% (v/v)/FCS 10% (v/v), Penicilin/streptomycin 1% (v/v)). 5000 cells per well (in 20 μl) are seeded in a 384 well plate (white-walled, clear bottom; BD Falcon #353274). The plate is incubated at 37° C./5% CO2 for 24 hours. Medium is then replaced by 20 μl OPTIMEM (Invitrogen #31985) for 3 to 4 hours. Test compounds are dissolved at 10 mM in DMSO and serially diluted in DMSO to 200× of the final concentration for dose response curves. Compounds are then diluted 1:33.3 in HBSS1×. 5 μl/well of HBSS1×/20 mM HEPES/0.2% BSA are added to the assay plate followed by addition of 5 μl/well of diluted compounds. CXCL12 (Peprotech #300-28A) may be used as a reference agonist. The plate is incubated for 90 minutes at 37° C. 12 μl of detection reagent (Path Hunter Detection Kit, DiscoveRx, #93-0001) is transferred to the assay plate and to the plate is incubated for 1 hour at room temperature. Luminescent signal is read in a microplate reader (FLUOstar Optima, bmg). The calculated EC50 values may fluctuate depending on the daily cellular assay performance. Fluctuations of this kind are known to those skilled in the art. Average EC50 values from several measurements are given as geometric mean values.
By pEC50 is commonly meant −log10 of the EC50, conventionally taken in molar units. For `Cc1ccc(C(=O)Nc2cccc(C(C)N3CCC(C(=O)NC4CCCCC4)CC3)c2)cn1` (racemic) [Example 1.181], the pEC50 was 6.83.

In turn, `O=C(Nc1cccc(CN2CCC(C(=O)NC3CCCCC3)CC2)c1)c1cncc(C2CC2)c1` [Example 1.147] showed a pEC50 of 8.30.

The compound `O=C(Nc1cccc(CN2CCC(C(=O)NC3CCCCC3)CC2)c1)c1cccnc1N1CCOCC1` [Example 1.073] had a pEC50 of 6.43.

`O=C(Nc1cccc(CN2CCC(C(=O)NC3CCCCC3)CC2)c1)c1ccc(Cl)c(F)c1` [Example 1.132] showed a pEC50 of 8.00.

`O=C(Nc1cccc(CN2CCC(C(=O)NC3CCCCC3)CC2)c1)c1ccc(F)cc1` [Example 1.156] had a pEC50 of 8.70.

`Cc1nc(CC(=O)Nc2cccc(CN3CCC(C(=O)NC(C)(C)C)CC3)c2)c(C)s1` [Example 1.261] gave a pEC50 of 8.70.

For the compound “rac-6-Trifluoromethyl-pyridine-2-carboxylic acid [3-((2S*,4S*)-4-cyclohexylcarbamoyl-2-methyl-piperidin-1-ylmethyl)-phenyl]-amide [Example 2.101]”, the negative logarithm of the EC50 (pEC50) was 8.30.

Compound `CCC(C)(C)NC(=O)C1CCN(Cc2cccc(NC(=O)c3ccc(C(F)(F)F)cn3)c2)CC1` [Example 1.341] gave a pEC50 of 9.00. This pEC50 is 0.70 log units higher than that of the compound before.

Compound `O=C(Nc1cccc(CN2CCC(C(=O)NC3CCCCC3)CC2)c1)c1ccc(Cl)cc1F` [Example 1.130] had a pEC50 of 8.15. Against the preceding compound, the pEC50 is 0.85 log units lower.

Consider `CC(C)(C)NC(=O)C1CCN(Cc2cccc(NC(=O)C(C)(C)c3ccccc3)c2)CC1` [Example 1.311], for which the pEC50 was 9.00. This pEC50 lies 0.85 log units higher than the previous one.

`Cc1cc(C(=O)Nc2cccc(CN3CCC(C(=O)NC(C)(C)C)CC3)c2)c(Cl)nn1` [Example 1.324] gave a pEC50 of 7.29. This pEC50 lies 1.71 log units lower than the previous one.

Consider `O=C(Nc1cccc(CN2CCC(C(=O)NC3CCCCC3)CC2)c1)c1ccccc1OC(F)(F)F` [Example 1.095], for which the pEC50 was 8.30.

The compound `CC(C)(C)NC(=O)C1CCN(Cc2cccc(NC(=O)/C=C/c3ccccc3)c2)CC1` [Example 1.337] had a negative-log EC50 (pEC50) of 8.10.

The compound `O=C(Nc1cccc(CN2CCC(C(=O)NC3CCCCC3)CC2)c1)c1ccc(Cl)nc1` [Example 1.067] gave a pEC50 of 8.70.

`Cc1ncncc1C(=O)Nc1cccc(CN2CCC(C(=O)NC3CCCCC3)CC2)c1` [Example 1.086] had a pEC50 of 6.28.

In the case of `O=C(Nc1cccc(CN2CCC(C(=O)NC3CCCCC3)CC2)c1)c1ccc(F)cn1` [Example 1.057], the pEC50 was 9.10.

In the case of `CC(c1cccc(NC(=O)c2ccc(C(F)(F)F)nc2)c1)N1CCC(C(=O)NC2CCCCC2)CC1` (racemic) [Example 1.183], the pEC50 is 7.01.

Turning to `COc1ncccc1C(=O)Nc1cccc(CN2CCC(C(=O)NC3CCCCC3)CC2)c1` [Example 1.069], the pEC50 was 8.00.

Compound `CC(C)(C)NC(=O)C1CCN(Cc2cccc(NC(=O)C3CC3(C)C)c2)CC1` (racemic) [Example 1.257] had a pEC50 of 8.15.

As to `O=C(Nc1cccc(CN2CCC(C(=O)NC3CCCCC3)CC2)c1)c1ccc(N2CCCC2)cn1` [Example 1.084], the pEC50 was 7.41.

Turning to `Cc1cc(F)ccc1C(=O)Nc1cccc(CN2CCC(C(=O)NC3CCCCC3)CC2)c1` [Example 1.115], the pEC50 was 8.30. Against the preceding compound, the pEC50 is 0.89 log units higher.

`CC(c1cccc(NC(=O)c2ccc(N3CCCC3)cn2)c1)N1CCC(C(=O)NC2CCCCC2)CC1` (racemic) [Example 1.188] gave a pEC50 of 6.67.

Compound `CC(C)(C)NC(=O)C1CCN(Cc2cccc(NC(=O)Cc3c(F)ccc(F)c3Cl)c2)CC1` [Example 1.254] had a pEC50 of 8.70.

Compound `Cn1cnc(C(=O)Nc2cccc(CN3CCC(C(=O)NC4CCCCC4)CC3)c2)c1` [Example 1.051] showed a negative logarithm of the EC50 (pEC50) of 6.89.

Consider `CC(c1cccc(NC(=O)c2ccccn2)c1)N1CCC(C(=O)NC2CCCCC2)CC1` (racemic) [Example 1.169], for which the negative-log EC50 (pEC50) is 7.92. Compared with the last compound, the pEC50 is 1.03 log units higher.

As to `CC(c1cccc(NC(=O)c2ccc(Cl)cn2)c1)N1CCC(C(=O)NC2CCCCC2)CC1` (racemic) [Example 1.168], the pEC50 was 8.70.

The compound `COc1ccc(NC(=O)c2ccc(F)cc2)cc1CN1CCC(C(=O)NC(C)(C)C)CC1` [Example 1.298] showed a negative-log EC50 (pEC50) of 7.72.

In turn, `CC(C)CN(C)C(=O)C1CCN(Cc2cccc(NC(=O)c3cncc(F)c3)c2)CC1` [Example 1.277] had a pEC50 of 7.74.

The compound `CCC(C)(C)NC(=O)C1CCN(Cc2cccc(NC(=O)c3cc(C)c[n+]([O-])c3)c2)CC1` [Example 4.023, N-{3-[4-(1,1-Dimethyl-propylcarbamoyl)-piperidin-1-ylmethyl]-phenyl}-5-methyl-1-oxy-nicotinamide] gave a pEC50 of 6.76.

In the case of `COc1ccc(C(=O)Nc2cccc(CN3CCC(C(=O)NC4CCCCC4)CC3)c2)cc1OC` [Example 1.126], the pEC50 is 7.15.

Compound `O=C(Nc1cccc(CN2CCC(C(=O)NC3CCCCC3)CC2)c1)c1ccc(C(F)(F)C(F)(F)F)cc1` [Example 1.153] showed a pEC50 of 8.00.

Consider `CC(C)CN(C)C(=O)C1CCN(Cc2cccc(NC(=O)c3cncc(Cl)c3)c2)CC1` [Example 1.278], for which the pEC50 is 8.22. Compared with the last compound, the pEC50 is 0.22 log units higher.

For `Cc1cncc(C(=O)Nc2ccnc(CN3CCC(C(=O)NC4CCCCC4)CC3)n2)c1` [Example 1.285], the pEC50 is 6.70.

As for `CC(C)(C)NC(=O)C1CCN(Cc2cccc(NC(=O)Cc3ccc(Cl)cc3Cl)c2)CC1` [Example 1.244], the pEC50 was 8.30.

`COc1c(CN2CCC(C(=O)NC(C)(C)C)CC2)cccc1NC(=O)c1cccc(C(F)(F)F)n1` [Example 1.319] gave a pEC50 of 7.35. This pEC50 is 0.95 log units lower than that of the compound before.

Consider `Cc1ccc(C(=O)Nc2cccc(CN3CCC(C(=O)NC4CCCCC4)CC3)c2)c(Cl)n1` [Example 1.070], for which the pEC50 is 7.40.

Take `Cc1cncc(C(=O)Nc2cccc(CN3CCC(C(=O)NC(C)(C)C)CC3)c2C)c1` [Example 1.314]: the negative logarithm of the EC50 (pEC50) is 6.84.

For `CC(C)(C)NC(=O)C1CCN(Cc2cccc(NC(=O)Cc3c(F)ccc(Cl)c3Cl)c2)CC1` [Example 1.253], the pEC50 is 8.40. Against the preceding compound, the pEC50 is 1.56 log units higher.

In turn, `O=C(Nc1cc(CN2CCC(C(=O)NC3CCCCC3)CC2)ccc1Cl)c1ccc(Cl)cc1` [Example 1.160] gave a pEC50 of 8.30.

As for `Cc1cccnc1C(=O)Nc1cccc(CN2CCC(C(=O)NC3CCCCC3)CC2)c1` [Example 1.061], the pEC50 is 9.00.

For `CC(C)(C)NC(=O)C1CCN(Cc2cccc(NC(=O)c3cccc(C(F)(F)F)c3)c2)CC1` [Example 1.237], the pEC50 was 8.40. Compared with the last compound, the pEC50 is 0.60 log units lower.

`CC(C)(C)NC(=O)C1CCN(Cc2cccc(NC(=O)Cc3c(Cl)cccc3Cl)c2)CC1` [Example 1.245]: the pEC50 was 9.00.

With `O=C(Nc1cccc(CN2CCC(C(=O)NC3CCCCC3)C2)c1)c1cccc(C(F)(F)F)n1` (racemic) [Example 2.099, rac-6-Trifluoromethyl-pyridine-2-carboxylic acid [3-(3-cyclohexylcarbamoyl-pyrrolidin-1-ylmethyl)-phenyl]-amide], the pEC50 was 7.22. Against the preceding compound, the pEC50 is 1.78 log units lower.

Take `CC(C)(C)NC(=O)C1CCN(Cc2cccc(NC(=O)c3ccccc3C(F)(F)F)c2)CC1` [Example 1.239]: the pEC50 was 7.77. Compared with the last compound, the pEC50 is 0.55 log units higher.

On to `O=C(Nc1cccc(CN2CCC(C(=O)NC3CCCCC3)CC2)c1)c1cnc2cc[nH]c2c1` [Example 1.093], for which the pEC50 was 6.83.

`CCc1ccc(CN2CCC(C(=O)NC(C)(C)C)CC2)cc1NC(=O)c1cncc(C)c1` [Example 1.327] gave a pEC50 of 7.55.

On to `O=C(Nc1cccc(CN2CCC(C(=O)NC3CCCCC3)CC2)c1)c1ccc(Cl)cn1` [Example 1.094], for which the pEC50 is 9.00.

With `O=C(Nc1cccc(CN2CCC(C(=O)NC3CCCCC3)CC2)c1)c1c(F)cccc1F` [Example 1.127], the negative-log EC50 (pEC50) was 7.44.

For `CC(c1cccc(NC(=O)c2cnccn2)c1)N1CCC(C(=O)NC2CCCCC2)CC1` (racemic) [Example 1.170], the negative-log EC50 (pEC50) was 7.74.

In turn, `COc1ccc(C(=O)Nc2cccc(C(C)N3CCC(C(=O)NC4CCCCC4)CC3)c2)cc1` (centres unmarked) [Example 1.167] gave a pEC50 of 7.60.

On to `Cc1cccc(C(=O)Nc2cccc(CN3CCC(C(=O)NC4CCCCC4)CC3)c2)c1` [Example 1.100], for which the negative logarithm of the EC50 (pEC50) was 8.52.

Turning to `CC(c1cccc(NC(=O)c2cnc(N3CCCC3)s2)c1)N1CCC(C(=O)NC2CCCCC2)CC1` (racemic) [Example 1.194], the pEC50 is 6.52.

The compound `O=C(Nc1cccc(CN2CCC(C(=O)NC3CCCCC3)CC2)c1)C1CC1` [Example 1.149] had a pEC50 of 7.09.

The compound `Cc1c(CN2CCC(C(=O)NC(C)(C)C)CC2)cccc1NC(=O)c1ccc(F)cc1` [Example 1.313] gave a negative-log EC50 (pEC50) of 7.72.

Take `Cc1sc(C(=O)Nc2cccc(CN3CCC(C(=O)NC4CCCCC4)CC3)c2)cc1CC(C)C` [Example 1.004]: the pEC50 was 7.40.

The compound `O=C(Nc1cccc(CN2CCC(C(=O)NC3CCCCC3)CC2)c1)c1ccc2ccccc2c1` [Example 1.007] gave a pEC50 of 8.22.

These data come from patent publication US9428456B2, “1-[m-carboxamido(hetero)aryl-methyl]-heterocyclyl-carboxamide derivatives” (Actelion Pharmaceuticals Ltd., priority 2012, dated 2016).
